Measurements taken from US20230212122A1, “MITOCHONDRIAL TARGETING COMPOUNDS FOR THE TREATMENT OF ASSOCIATED DISEASES” (The Regents of the University of Michigan, priority 2020, published 2023).

How the values were obtained:
[1] = tested on: UM16 cell line; assay: Nascent RNA sequencing (Bru-seq), gene fold change; format: cell-based; conditions: 5 μM, 4 hours
From the text: Consistent with this observation, there are also massive metabolite pathways influenced including starch and sucrose metabolism, glycolysis and gluconeogenesis, purine metabolism, pyrimidine metabolism, N-glycan biosynthesis, etc.

[2] = tested on: BxPc3 cells; assay: MTT assay, cancer cell growth inhibition (BxPC-3); format: cell-based; conditions: Homo sapiens, BXPC-3, 168 h, 7 days of treatment
Method: Measurement of cancer cell growth inhibition of the compounds of invention Cytotoxicity of the compounds was assessed by MTT assay. In brief, MIA PaCa-2 cells or BxPc3 cells were seeded in 96-well microtitre plates at density of 200 cells/well. After overnight attachment, cells were treated with compounds at indicated concentration. After 7 days of treatment, MTT solution (3 mg/ml, 20 μl) was added to each well and cells were incubated for 3 h at 37° C. After incubation, media from each well was removed and the dark blue formazan crystals formed by live cells were dissolved in DMSO ([…] per well). The absorbance intensity was measured at 570 nm on a microplate reader (Molecular Devices, Sunnyvale, Calif., USA). The half maximal inhibitory concentration (IC50) value were calculated using 4 or 6 dots curve plotted with Cumulative Gaussian equation or Log(inhibitor) vs. response equation in GraphPad Prism.

CCOC(=O)[C@@H]1CCCN(S(=O)(=O)c2ccc(S(=O)(=O)N(CC)CC)cc2)C1 [DX2-201, ethyl (R)-1-((4-(N,N-diethylsulfamoyl)phenyl)sulfonyl)piperidine-3-carboxylate]
Fold change AC008521.2 ([1]; non-coding RNA, downregulated): 0.1876
Fold change AC019257.2 ([1]; non-coding RNA, downregulated): 0.2345
Fold change AC091133.4 ([1]; non-coding RNA, downregulated): 0.2345
Fold change AC092916.2 ([1]; non-coding RNA, downregulated): 0.1706
Fold change AC106037.1 ([1]; non-coding RNA, downregulated): 0.2345
Fold change AL096870.2 ([1]; non-coding RNA, downregulated): 0.02465
Fold change BX679664.2 ([1]; non-coding RNA, downregulated): 0.1876
Fold change C1orf50 ([1]; non-coding RNA, downregulated): 0.1876
Fold change MIR545 ([1]; non-coding RNA, downregulated): 0.1876
Fold change MIR5000 ([1]; non-coding RNA, downregulated): 0.05752
Fold change RN7SL128P ([1]; non-coding RNA, downregulated): 0.1876
Fold change RN7SL388P ([1]; non-coding RNA, downregulated): 0.2085
Fold change RN7SL589P ([1]; non-coding RNA, downregulated): 0.2165
Fold change RN7SL833P ([1]; non-coding RNA, downregulated): 0.2345
Fold change RNU1-19P ([1]; non-coding RNA, downregulated): 0.1564
Fold change RNU1-73P ([1]; non-coding RNA, downregulated): 0.09381
Fold change RNU6-122P ([1]; non-coding RNA, downregulated): 0.04314
Fold change RNU6-398P ([1]; non-coding RNA, downregulated): 0.03451
Fold change RNU6-519P ([1]; non-coding RNA, downregulated): 0.1564
Fold change RNU6-548P ([1]; non-coding RNA, downregulated): 0.05752
Fold change SNORA73 ([1]; non-coding RNA, downregulated): 0.2345
Fold change TERC ([1]; non-coding RNA, downregulated): 0.04314
Fold change Y_RNA ([1]; non-coding RNA, downregulated): 0.02876
Fold change Z99127.3 ([1]; non-coding RNA, downregulated): 0.1876
Fold change ZBTB40-IT1 ([1]; non-coding RNA, downregulated): 0.2345
Fold change AC007686.1 ([1]; non-coding RNA, upregulated): 2.01
Fold change AC007952.4 ([1]; non-coding RNA, upregulated): 2.345
Fold change AC008687.3 ([1]; non-coding RNA, upregulated): 2.033
Fold change AC034198.2 ([1]; non-coding RNA, upregulated): 2.345
Fold change AC105020.4 ([1]; non-coding RNA, upregulated): 1.782
Fold change AC139887.1 ([1]; non-coding RNA, upregulated): 2.064
Fold change AL136982.3 ([1]; non-coding RNA, upregulated): 2.217
Fold change AL161729.3 ([1]; non-coding RNA, upregulated): 1.993
Fold change AL627171.1 ([1]; non-coding RNA, upregulated): 1.841
Fold change AL645939.5 ([1]; non-coding RNA, upregulated): 1.876
Fold change AP001527.2 ([1]; non-coding RNA, upregulated): 2.217
Fold change AP001619.1 ([1]; non-coding RNA, upregulated): 1.62
Fold change AP003168.2 ([1]; non-coding RNA, upregulated): 1.689
Fold change DPRXP4 ([1]; non-coding RNA, upregulated): 3.19
Fold change EIF5AP3 ([1]; non-coding RNA, upregulated): 1.876
Fold change HMGN1P15 ([1]; non-coding RNA, upregulated): 2.111
Fold change RNA5SP379 ([1]; non-coding RNA, upregulated): 2.814
Fold change RNU6-182P ([1]; non-coding RNA, upregulated): 20.4
Fold change RNU6-396P ([1]; non-coding RNA, upregulated): 1.876
Fold change RNU6-531P ([1]; non-coding RNA, upregulated): 2.814
Fold change RNU6-564P ([1]; non-coding RNA, upregulated): 2.814
Fold change RNU6-1272P ([1]; non-coding RNA, upregulated): 25.5
Fold change RNY3P2 ([1]; non-coding RNA, upregulated): 1.876
Fold change SNORD124 ([1]; non-coding RNA, upregulated): 1.876
Fold change Y_RNA ([1]; non-coding RNA, upregulated): 15.3
Fold change A2ML1 ([1]; protein-coding, downregulated): 0.582
Fold change ARRDC4 ([1]; protein-coding, downregulated): 0.4315
Fold change BDKRB2 ([1]; protein-coding, downregulated): 0.6044
Fold change DGAT2 ([1]; protein-coding, downregulated): 0.5129
Fold change DPAGT1 ([1]; protein-coding, downregulated): 0.6034
Fold change FAM86C1 ([1]; protein-coding, downregulated): 0.6053
Fold change FAM86HP ([1]; protein-coding, downregulated): 0.5946
Fold change FAM200A ([1]; protein-coding, downregulated): 0.5595
Fold change FOXA2 ([1]; protein-coding, downregulated): 0.6075
Fold change G0S2 ([1]; protein-coding, downregulated): 0.4666
Fold change GGCT ([1]; protein-coding, downregulated): 0.6012
Fold change HLF ([1]; protein-coding, downregulated): 0.4727
Fold change INTS5 ([1]; protein-coding, downregulated): 0.4515
Fold change L3HYPDH ([1]; protein-coding, downregulated): 0.6301
Fold change PCED1A ([1]; protein-coding, downregulated): 0.576
Fold change PLLP ([1]; protein-coding, downregulated): 0.5843
Fold change POLR2J4 ([1]; protein-coding, downregulated): 0.4775
Fold change RRS1 ([1]; protein-coding, downregulated): 0.5686
Fold change SCARNA5 ([1]; protein-coding, downregulated): 0.4376
Fold change SLC5A6 ([1]; protein-coding, downregulated): 0.6234
Fold change SNHG21 ([1]; protein-coding, downregulated): 0.5497
Fold change SNORA62 ([1]; protein-coding, downregulated): 0.5968
Fold change SNORA71C ([1]; protein-coding, downregulated): 0.6023
Fold change TMED1 ([1]; protein-coding, downregulated): 0.6232
Fold change TXNIP ([1]; protein-coding, downregulated): 0.4997
Fold change ANKRD37 ([1]; protein-coding, upregulated): 2.182
Fold change ARG2 ([1]; protein-coding, upregulated): 2.569
Fold change ARHGAP30 ([1]; protein-coding, upregulated): 1.728
Fold change ARRDC3 ([1]; protein-coding, upregulated): 1.707
Fold change BNIP3L ([1]; protein-coding, upregulated): 1.723
Fold change CCNG2 ([1]; protein-coding, upregulated): 1.668
Fold change CREBRF ([1]; protein-coding, upregulated): 1.676
Fold change ERRFI1 ([1]; protein-coding, upregulated): 1.77
Fold change FOXO6 ([1]; protein-coding, upregulated): 1.954
Fold change HDAC5 ([1]; protein-coding, upregulated): 1.811
Fold change KLHL24 ([1]; protein-coding, upregulated): 2.336
Fold change LOXL4 ([1]; protein-coding, upregulated): 1.73
Fold change MXD4 ([1]; protein-coding, upregulated): 1.812
Fold change MXI1 ([1]; protein-coding, upregulated): 1.785
Fold change NDRG1 ([1]; protein-coding, upregulated): 2.874
Fold change PDK1 ([1]; protein-coding, upregulated): 1.779
Fold change PPP1R3C ([1]; protein-coding, upregulated): 1.699
Fold change PRDM1 ([1]; protein-coding, upregulated): 1.748
Fold change RNF122 ([1]; protein-coding, upregulated): 1.915
Fold change SEMA3B ([1]; protein-coding, upregulated): 1.668
Fold change SOX12 ([1]; protein-coding, upregulated): 1.903
Fold change UPRT ([1]; protein-coding, upregulated): 1.74
Fold change VLDLR ([1]; protein-coding, upregulated): 1.741
Fold change YPEL1 ([1]; protein-coding, upregulated): 1.706
Fold change ZNF546 ([1]; protein-coding, upregulated): 1.757
IC50 [2]: 630 ± 240 nM
